# Tested on: aryl hydrocarbon receptor
# Test: Reporter assay (No. 1), ligand responsive reporter gene (firefly luciferase, pGV-Ya-XREx5), clone of Example 2
# Format: cell-based, mouse
# Conditions: about 40 hours; for Amount of luminescence by firefly luciferase (from pGV-Ya-XREx5) Ratio: ratio to 0 pg/ml
# From the text: Separately, plasmid pGV-Ya-XREx5 (ligand responsive reporter gene containing plasmid) constructed in Example 1 was digested with Bam HI. Further, plasmid pRL-TK (cell number reporter gene containing plasmid; marketed by Toyo Ink) containing the sea pansy luciferase gene used as the cell number reporter gene was digested with Bam HI, and neomycin resistance (aminoglycoside phosphotransferase) gene containing plasmid pRc/RSV (available from INVITROGEN) was digested with Hind III. These three digested plasmids, i.e., Bam HI digested pGV-Ya-XREx5 (2.8 µg), Bam HI digested pRL-TK (2.8 µg), and Hind III digested pRc/RSV (0.5 µg), were then mixed with 300 µl of αMEM medium (mixture A), while 36 µl of lipofectin (available from GIBCO-BRL) was mixed with 300 µl of αMEM medium (mixture B). After being left at room temperature for 30 minutes, mixtures A and B were combined together and left at room temperature for 10 minutes. The Hepa1clc7 cells cultured overnight as described above were then washed once with αMEM medium, to which there was added a solution prepared by adding and mixing additional 5.4 ml of αMEM medium to the above mixture (A + B). Culturing of the resulting mixture was carried out for 5 hours. The medium was then replaced with 10% serum containing αMEM medium, followed by further culturing overnight. Subsequently, the cells were scratched from the petri dishes and collected, and the collected cells were suspended in 10% serum containing αMEM medium to have the total volume of 100 ml. The resulting cell suspension was plated on 96 well plates at a ratio of 100 µl/well. After these plates were cultured overnight, a medium prepared by dissolving geneticin (hereinafter referred to as "G418") in 10% serum containing αMEM medium to have a concentration of 1.6 mg/ml was added at a ratio of 100 µl/well (G418 final concentration 800 µg/ml). Culturing was further continued for 3 weeks, during which the medium was replaced with 10% serum containing αMEM medium containing 800 µg/ml G418 at a rate of once per week. The volume of the medium was set at 200 µl/well. After said 3 weeks, cells were scratched from the wells in which colony formation had been observed, and collected (for 192 wells), and the collected cells were divided into three and independently plated on different plates, followed by continuous culturing for 4 days. To the first plate, only DMSO was added (solvent control), and to the second plate, 3-methylcholanthrene (hereinafter referred to as "3-MC") dissolved in DMSO was added so that the final concentration of 3-MC in the second plate came to 10 µM per well. The first and second plates were then cultured overnight. The third plate was further cultured as the master plate without any addition. From each well of each plate, to which DMSO or 3-MC had been added, the medium was removed, and the wells were washed twice with PBS(-) (sodium chloride, 8000 mg/l; potassium chloride, 200 mg/l; sodium monohydrogenphosphate (anhydrous), 1150 mg/l; […] dihydrogenphosphate (anhydrous), 200 mg/l; marketed by Nissui Pharmaceutical). A 5-fold diluted cell lysis buffer of PicaGene dual kit (marketed by Toyo Ink) was added to the wells in 15 µl/well, followed by leaving the plates at room temperature for 30 minutes or longer to cause cell lysis, to give cell extracts. These plates were set on a luminometer LB96P with an automatic enzyme substrate injector (available from Berthold), and PicaGene luminescence reagent II and sea pansy luminescence reagent (PicaGene dual kit, marketed by Toyo Ink) were automatically dispensed each in 50 µl, followed by continuous measurement for the amount of luminescence.
# The clone screened in Example 2 was plated on 96-well plates at a ratio of 40,000 cells/well, followed by culturing overnight. […]
structure (smiles),measurement,setting,value
"Clc1cc2c(cc1Cl)Oc1cc(Cl)c(Cl)cc1O2 [TCDD, 2,3,7,8-tetrachlorodibenzo-p-dioxin]",Amount of luminescence by firefly luciferase (from pGV-Ya-XREx5) Measured value,final conc. 0.02 pg/ml,0.517 x 10^4
same,Amount of luminescence by firefly luciferase (from pGV-Ya-XREx5) Ratio,final conc. 0.02 pg/ml,1.1
same,Amount of luminescence by firefly luciferase (from pGV-Ya-XREx5) Measured value,final conc. 0.2 pg/ml,0.532 x 10^4
same,Amount of luminescence by firefly luciferase (from pGV-Ya-XREx5) Ratio,final conc. 0.2 pg/ml,1.1
same,Amount of luminescence by firefly luciferase (from pGV-Ya-XREx5) Measured value,final conc. 2 pg/ml,0.873 x 10^4
same,Amount of luminescence by firefly luciferase (from pGV-Ya-XREx5) Ratio,final conc. 2 pg/ml,1.8
same,Amount of luminescence by firefly luciferase (from pGV-Ya-XREx5) Measured value,final conc. 20 pg/ml,3.14 x 10^4
same,Amount of luminescence by firefly luciferase (from pGV-Ya-XREx5) Ratio,final conc. 20 pg/ml,6.5
same,Amount of luminescence by firefly luciferase (from pGV-Ya-XREx5) Measured value,final conc. 200 pg/ml,4.46 x 10^4
same,Amount of luminescence by firefly luciferase (from pGV-Ya-XREx5) Ratio,final conc. 200 pg/ml,9.2
same,Amount of luminescence by firefly luciferase (from pGV-Ya-XREx5) Measured value,final conc. 2000 pg/ml,4.17 x 10^4
same,Amount of luminescence by firefly luciferase (from pGV-Ya-XREx5) Ratio,final conc. 2000 pg/ml,8.6
same,Amount of luminescence by firefly luciferase (from pGV-Ya-XREx5) Measured value,final conc. 20000 pg/ml,4.49 x 10^4
same,Amount of luminescence by firefly luciferase (from pGV-Ya-XREx5) Ratio,final conc. 20000 pg/ml,9.2
